Measurements from patent publication US11028087B2, “2,6-disubstituted-9-cyclopentyl-9H-purines, use thereof as medicaments, and pharmaceutical compositions” (UNIVERZITA PALACKEHO V OLOMOUCI, priority 2017, dated 2021).
Like-named read-outs stand apart in the source and are kept apart here. One block for each compound: values may come before it.

Experiments:
[1] = test system: EOL-1 (eosinophilic leukaemia, carrying the fusion FIP1L1-PDGFRA); test: Calcein AM cytotoxicity assay; format: cell-based; conditions: Homo sapiens
Description: (§1) Cytotoxicity of the compounds is the major property determining their anticancer effect in vivo. One of the parameters used, as the basis for cytotoxicity assays, is the integrity of cytoplasmic membrane of viable cells. For example, a microtiter assay, which uses acetomethoxy derivate of calcein (Calcein AM), is widely used for evaluation of cell proliferation and cytotoxicity. This assay is used in drug screening programs and in chemosensitivity testing. Intracellular esterases of viable cells convert calcein AM to green-fluorescent calcein of which signal corresponds to the number of viable cells in the culture.
(§2) We have been using the following cell lines: MV4-11 (acute myeloid leukemia, FLT3-ITD positive), MOLM-13 (acute myeloid leukemia, FLT3-ITD positive), THP-1 (acute myeloid leukemia, wt FLT3), U937 (monocytic leukemia, wt FLT3), EOL-1 (eosinophilic leukaemia, carrying the fusion FIP1L1-PDGFRA), H1703 (non-small cell lung carcinoma, PDGFRA amplification). […] K562 and MCF-7 cell lines were maintained in DMEM supplemented with 10% fetal bovine serum, penicilin (100 U/ml) and streptomycin (100 μg/ml). All cell lines were cultivated at 37° C. in 5% CO2. For cytotoxicity assays, cells were seeded in appropriate densities into 96 well plates and the next day tested compounds were added at various concentrations in triplicates. Three days after drug addition, Calcein AM solution (final concentration 1 μg/ml; Thermo Scientific, USA) was added into each well and incubated for 1 h.

K562 = test: Calcein AM cytotoxicity assay; format: cell-based; conditions: Homo sapiens
Description: as §1, §2

MCF-7 = test: Calcein AM cytotoxicity assay; format: cell-based; conditions: Homo sapiens
Description: as §1, §2

[2] = test system: MOLM-13 (acute myeloid leukemia, FLT3-ITD positive); test: Calcein AM cytotoxicity assay; format: cell-based; conditions: Homo sapiens
Description: as §1, §2

[3] = test system: MV4-11 (acute myeloid leukemia, FLT3-ITD positive); test: Calcein AM cytotoxicity assay; format: cell-based; conditions: Homo sapiens
Description: as §1, §2

[4] = test system: THP-1 (acute myeloid leukemia, wt FLT3); test: Calcein AM cytotoxicity assay; format: cell-based; conditions: Homo sapiens
Description: as §1, §2

[5] = test system: U937 (monocytic leukemia, wt FLT3); test: Calcein AM cytotoxicity assay; format: cell-based; conditions: Homo sapiens
Description: as §1, §2

CDK2/Cyclin E = target: T1, CDK2/Cyclin E (Homo sapiens, UniProt P24941); test: Kinase inhibition assay with [γ-33P]ATP; format: biochemical
T1 construct: made in house; host or cells: Sf9 insect cells, baculoviral infection
Experimental: (§3) CDK1/Cyclin B and CDK2/Cyclin E kinases were produced in Sf9 insect cells via baculoviral infection and purified on a NiNTA column (Qiagen). CDK5/p35 and CDK7Cyclin H/MAT1, FLT3 WT, FLT3-ITD and FLT3 D835 were purchased from ProQinase GmbH. The kinase reactions were assayed with 1 mg/mL histone H1 (for CDK1, CDK2 and CDK5), (YSPTSPS)2KK peptide (for CDK7) or AGLT substrate (for FLT3) in the presence of 15/15/0.15/1.5/1 μM ATP (for CDK1/CDK2/CDK5/CDK7/FLT3), 0.05 μCi [γ-^33P]ATP and of the test compound in a final volume of 10 μL, all in a reaction buffer (60 mM HEPES-NaOH, pH 7.5, 3 mM MgCl2, 3 mM MnCl2, 3 μM Na-orthovanadate, 1.2 mM DTT, 2.5 μg/50 μl PEG20,000). The reactions were stopped by adding 5 μL of 3% aq H3PO4. Aliquots were spotted onto P-81 phosphocellulose (Whatman), washed 3× with 0.5% aq H3PO4 and finally air-dried.

FLT3-ITD = target: T2, FLT3-ITD (Homo sapiens, UniProt P36888); test: Kinase inhibition assay with [γ-33P]ATP; format: biochemical; conditions: comparative example; read-out: Influence of compounds on protein kinase inhibition, IC50 values (μM) FLT3 ITD
T2 sequence (P36888 1-993): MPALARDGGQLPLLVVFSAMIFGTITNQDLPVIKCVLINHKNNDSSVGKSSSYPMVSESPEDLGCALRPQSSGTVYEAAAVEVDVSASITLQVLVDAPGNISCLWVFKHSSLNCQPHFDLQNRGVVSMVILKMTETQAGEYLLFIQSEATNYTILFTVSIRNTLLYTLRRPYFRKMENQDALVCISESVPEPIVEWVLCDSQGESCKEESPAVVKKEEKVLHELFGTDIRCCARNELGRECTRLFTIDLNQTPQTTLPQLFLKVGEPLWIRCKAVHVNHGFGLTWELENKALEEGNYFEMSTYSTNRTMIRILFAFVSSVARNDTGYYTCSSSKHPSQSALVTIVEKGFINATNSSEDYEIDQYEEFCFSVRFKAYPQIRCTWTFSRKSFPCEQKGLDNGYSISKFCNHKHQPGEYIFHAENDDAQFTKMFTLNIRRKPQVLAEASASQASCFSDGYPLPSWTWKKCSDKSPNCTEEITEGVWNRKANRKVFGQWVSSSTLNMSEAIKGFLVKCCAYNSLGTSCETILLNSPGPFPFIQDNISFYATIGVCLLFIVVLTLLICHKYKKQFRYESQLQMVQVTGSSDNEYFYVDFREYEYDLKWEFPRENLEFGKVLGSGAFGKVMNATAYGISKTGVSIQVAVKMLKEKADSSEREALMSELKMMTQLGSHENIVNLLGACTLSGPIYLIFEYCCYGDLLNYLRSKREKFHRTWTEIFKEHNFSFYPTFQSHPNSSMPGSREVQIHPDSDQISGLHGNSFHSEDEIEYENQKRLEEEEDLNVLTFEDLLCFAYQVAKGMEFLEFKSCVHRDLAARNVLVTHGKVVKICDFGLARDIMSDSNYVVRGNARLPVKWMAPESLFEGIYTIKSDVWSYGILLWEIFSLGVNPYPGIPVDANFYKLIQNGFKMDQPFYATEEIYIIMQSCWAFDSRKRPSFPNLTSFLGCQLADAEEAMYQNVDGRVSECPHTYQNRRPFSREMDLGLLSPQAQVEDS
Experimental: as §3

[6] = test system: Kasumi-1 (acute myeloid leukemia, KIT mutation Asn822Lys); test: Calcein AM cytotoxicity assay; format: cell-based; conditions: Homo sapiens, 72 h; Kasumi-1; Calcein AM, three days; read-out: EC50 values (μM) Kasumi-1
Description: as §1
We have been using the following cell lines: MV4-11 (acute myeloid leukemia, FLT3-ITD positive), MOLM-13 (acute myeloid leukemia, FLT3-ITD positive), THP-1 (acute myeloid leukemia, wt FLT3), U937 (monocytic leukemia, wt FLT3), EOL-1 (eosinophilic leukaemia, carrying the fusion FIP1L1-PDGFRA), H1703 (non-small cell lung carcinoma, PDGFRA amplification). They were maintained in RPMI-1640 supplemented with 10% fetal bovine serum, penicillin (100 U/ml) and streptomycin (100 μg/ml). Kasumi-1 (acute myeloid leukemia, KIT mutation Asn822Lys) cells were cultivated in RPMI-1640 supplemented with 15% fetal bovine serum, penicillin (100 U/ml) and streptomycin (100 μg/ml). K562 and MCF-7 cell lines were maintained in DMEM supplemented with 10% fetal bovine serum, penicilin (100 U/ml) and streptomycin (100 μg/ml). All cell lines were cultivated at 37° C. in 5% CO2. For cytotoxicity assays, cells were seeded in appropriate densities into 96 well plates and the next day tested compounds were added at various concentrations in triplicates. Three days after drug addition, Calcein AM solution (final concentration 1 μg/ml; Thermo Scientific, USA) was added into each well and incubated for 1 h. After this incubation period, fluorescence of the live cells was measured at 485 nm/538 nm (ex/em) with a Fluoroskan Ascent microplate reader (Labsystems).

CDK1/Cyclin B = target: T3, CDK1/Cyclin B (Homo sapiens, UniProt P06493); test: Kinase inhibition assay with [γ-33P]ATP; format: biochemical; conditions: histone H1, 15 μM ATP
T3 construct: made in house; host or cells: Sf9 insect cells, baculoviral infection
T3 sequence (P06493 whole entry, species assumed): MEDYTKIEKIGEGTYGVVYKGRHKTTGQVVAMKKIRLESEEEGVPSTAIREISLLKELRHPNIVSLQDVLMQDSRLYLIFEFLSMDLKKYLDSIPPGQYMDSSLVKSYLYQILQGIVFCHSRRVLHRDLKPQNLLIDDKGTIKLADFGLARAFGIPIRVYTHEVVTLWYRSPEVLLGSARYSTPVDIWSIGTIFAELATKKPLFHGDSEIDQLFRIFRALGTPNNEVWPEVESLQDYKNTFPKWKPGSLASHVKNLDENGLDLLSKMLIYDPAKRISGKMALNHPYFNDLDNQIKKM
T3 sequence (P14635 whole entry partner, species assumed): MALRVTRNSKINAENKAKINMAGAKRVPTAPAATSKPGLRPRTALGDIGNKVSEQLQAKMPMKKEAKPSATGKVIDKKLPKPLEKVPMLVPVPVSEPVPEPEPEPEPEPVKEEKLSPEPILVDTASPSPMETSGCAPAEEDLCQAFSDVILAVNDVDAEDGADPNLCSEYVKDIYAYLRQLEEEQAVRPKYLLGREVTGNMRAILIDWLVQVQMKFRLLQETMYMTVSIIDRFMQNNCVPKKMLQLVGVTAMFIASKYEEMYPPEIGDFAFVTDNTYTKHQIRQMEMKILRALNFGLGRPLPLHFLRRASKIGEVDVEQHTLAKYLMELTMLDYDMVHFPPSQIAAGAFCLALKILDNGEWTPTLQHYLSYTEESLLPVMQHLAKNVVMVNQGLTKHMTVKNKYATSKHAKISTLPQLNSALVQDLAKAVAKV
Experimental: as §3

CDK5/p35 = target: T4, CDK5/p35 (Homo sapiens, UniProt Q00535); test: Kinase inhibition assay with [γ-33P]ATP; format: biochemical; conditions: histone H1, 0.15 μM ATP
T4 construct: purchased ProQinase GmbH
T4 sequence (Q00535 whole entry): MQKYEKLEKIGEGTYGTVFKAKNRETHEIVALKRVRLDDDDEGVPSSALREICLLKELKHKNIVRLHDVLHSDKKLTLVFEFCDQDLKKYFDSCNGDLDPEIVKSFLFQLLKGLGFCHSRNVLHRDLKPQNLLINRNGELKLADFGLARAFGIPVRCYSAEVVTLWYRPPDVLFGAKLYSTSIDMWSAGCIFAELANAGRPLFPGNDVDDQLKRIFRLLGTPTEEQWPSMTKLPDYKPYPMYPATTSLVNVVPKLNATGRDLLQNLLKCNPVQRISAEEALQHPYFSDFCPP
T4 sequence (Q15078 whole entry partner): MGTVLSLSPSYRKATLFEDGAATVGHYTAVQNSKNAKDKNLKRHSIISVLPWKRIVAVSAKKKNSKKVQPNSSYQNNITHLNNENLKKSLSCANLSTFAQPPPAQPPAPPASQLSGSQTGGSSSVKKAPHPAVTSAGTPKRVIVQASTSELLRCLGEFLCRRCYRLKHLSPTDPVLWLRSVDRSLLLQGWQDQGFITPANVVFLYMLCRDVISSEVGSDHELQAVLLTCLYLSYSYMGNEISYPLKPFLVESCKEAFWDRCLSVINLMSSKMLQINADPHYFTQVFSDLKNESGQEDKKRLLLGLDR
Experimental: as §3

FLT3 WT = target: T5, FLT3 WT (Homo sapiens, UniProt P36888); test: Kinase inhibition assay with [γ-33P]ATP; format: biochemical; conditions: AGLT substrate, 1 μM ATP
T5 construct: purchased ProQinase GmbH
T5 sequence (P36888 27-993): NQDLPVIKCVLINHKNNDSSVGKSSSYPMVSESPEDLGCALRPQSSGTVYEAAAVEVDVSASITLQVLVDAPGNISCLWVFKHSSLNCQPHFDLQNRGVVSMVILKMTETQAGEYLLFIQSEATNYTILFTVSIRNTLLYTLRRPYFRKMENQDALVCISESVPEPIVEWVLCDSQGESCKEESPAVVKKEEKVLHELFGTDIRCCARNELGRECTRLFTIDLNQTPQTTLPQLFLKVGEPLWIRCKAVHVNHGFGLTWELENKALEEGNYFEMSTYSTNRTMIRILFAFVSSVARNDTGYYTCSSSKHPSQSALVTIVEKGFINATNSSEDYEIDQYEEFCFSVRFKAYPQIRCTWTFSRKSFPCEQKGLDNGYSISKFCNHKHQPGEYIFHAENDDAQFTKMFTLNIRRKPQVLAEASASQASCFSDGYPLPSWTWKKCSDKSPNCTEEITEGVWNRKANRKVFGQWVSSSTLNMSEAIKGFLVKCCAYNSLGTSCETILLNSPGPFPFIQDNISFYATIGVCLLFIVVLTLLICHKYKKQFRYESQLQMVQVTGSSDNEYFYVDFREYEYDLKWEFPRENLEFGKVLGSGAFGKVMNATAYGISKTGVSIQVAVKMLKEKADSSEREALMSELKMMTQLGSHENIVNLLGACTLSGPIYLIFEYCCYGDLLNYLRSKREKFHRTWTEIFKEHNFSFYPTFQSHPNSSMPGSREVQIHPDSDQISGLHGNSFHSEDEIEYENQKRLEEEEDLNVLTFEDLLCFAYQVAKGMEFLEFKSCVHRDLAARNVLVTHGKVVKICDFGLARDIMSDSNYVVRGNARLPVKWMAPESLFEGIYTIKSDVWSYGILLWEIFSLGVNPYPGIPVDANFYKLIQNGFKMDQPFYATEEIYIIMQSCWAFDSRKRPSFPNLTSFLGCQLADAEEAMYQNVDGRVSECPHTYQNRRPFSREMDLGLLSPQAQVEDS
Experimental: as §3

IC50 (CDK2/Cyclin E; comparative example, read-out: Influence of compounds on protein kinase inhibition, IC50 values (μM) CDK2): 7.51 µM
IC50 (FLT3-ITD): 1.03 µM
Compound: NC1CCC(Nc2nc(Nc3ccc(CN4CCOCC4)cc3)c3ncn(Cc4ccccc4)c3n2)CC1 (stereo not drawn) [Benzyl derivative of compound 264, reference compound]
EC50 ([1]; EOL1, comparative example, EOL-1, 72 h, read-out: Influence of compounds on proliferation (72 h), EC50 values (μM) EOL-1): 0.491 µM
EC50 (K562; comparative example, K562, 72 h, read-out: Influence of compounds on proliferation (72 h), EC50 values (μM) K562): 2.69 µM
EC50 (MCF-7; MCF7, comparative example, MCF-7, 72 h, read-out: Influence of compounds on proliferation (72 h), EC50 values (μM) MCF-7): 4.83 µM
EC50 ([2]; comparative example, MOLM-13, 72 h, read-out: Influence of compounds on proliferation (72 h), EC50 values (μM) MOLM-13): 1.26 µM
EC50 ([3]; comparative example, MV4-11, 72 h, read-out: Influence of compounds on proliferation (72 h), EC50 values (μM) MV4-11): 0.393 µM
EC50 ([4]; comparative example, THP-1, 72 h, read-out: Influence of compounds on proliferation (72 h), EC50 values (μM) THP-1): 14.8 µM
EC50 ([5]; U-937, comparative example, U937, 72 h, read-out: Influence of compounds on proliferation (72 h), EC50 values (μM) U937): 2.62 µM

IC50 (CDK1/Cyclin B): 6.16 µM
IC50 (CDK2/Cyclin E; histone H1, 15 μM ATP, read-out: IC50 values (μM) CDK2): 3.56 µM
IC50 (CDK5/p35): 8.16 µM
IC50 (FLT3 WT): 0.021 µM
Compound: NCCCCCCNc1nc(Nc2ccc(CN3CCOCC3)cc2)c2ncn(C3CCCC3)c2n1 [Compound 38]
EC50 ([1]; EOL1, 72 h, EOL-1, Calcein AM, three days, read-out: EC50 values (μM) EOL-1): 0.276 µM
EC50 (K562; 72 h, K562, Calcein AM, three days, read-out: EC50 values (μM) K562): 4.57 µM
EC50 (MCF-7; MCF7, 72 h, MCF-7, Calcein AM, three days, read-out: EC50 values (μM) MCF-7): 5.55 µM
EC50 ([2]; 72 h, MOLM-13, Calcein AM, three days, read-out: EC50 values (μM) MOLM-13): 0.064 µM
EC50 ([3]; 72 h, MV4-11, Calcein AM, three days after drug addition, read-out: EC50 values (μM) MV4-11): 0.086 µM
EC50 ([4]; 72 h, THP-1, Calcein AM, three days, read-out: EC50 values (μM) THP-1): 3.59 µM
EC50 ([5]; U-937, 72 h, U937, Calcein AM, three days, read-out: EC50 values (μM) U937): 2.92 µM
EC50 [6]: 1.23 µM
